Laboratory results from patent publication EP4592286A1, “MACROCYCLIC NITROGEN-CONTAINING CROWN ETHER COMPOUND AND USE THEREOF AS PROTEIN KINASE INHIBITOR” (Artivila Biopharma, priority 2022, dated 2024).

What was measured:
A375 cells = test: CDK9 cell activity test (Cell Titer-GLO cell growth inhibition), A375; type: cell-based; details: Homo sapiens, A-375, 72 hours
Experimental: (§1) In these experiments, the cell line MV-4-11 was cultured in IMDM culture solution (containing 100 U/mL penicillin and 0.1 g/L streptomycin), the cell line HCC1187 was cultured in RPMI-1640 culture solution (containing 100 U/mL penicillin and 0.1 g/L streptomycin) containing 10% fetal bovine serum, the cell line Mia Paca-2 was cultured in DMEM (containing 100 U/mL penicillin and 0.1 g/L streptomycin) containing 10% fetal bovine serum and 2.5% horse serum, and the cell line A375 was cultured in RPMI-1640 culture solution (containing 100 U/mL penicillin and 0.1 g/L streptomycin) containing 10% fetal bovine serum. All cells were cultured in a saturated humidity incubator with 37 °C and 5% CO2.
(§2) When MV-4-11 cells, HCC-1187 cells, Mia Paca-2 cells and A375 cells grew to 80% -90% confleuncy, they were digested with trypsin, resuspended, counted and diluted to a certain cell density with complete medium, and inoculated into 96-well plate at 100 µL/well. […] The cells were lysed by mixing evenly for 2 minutes using a shaker, incubated at room temperature for 60 minutes to stabilize the chemiluminescence signal, and the chemiluminescence was read by PE EnVision microtiter plate reader. The cell growth inhibition rate Inh%=(DMSO well - compound treatment well)/(DMSO well - background well)×100 was calculated, and the cell growth IC50 value was obtained by fitting with GraphPad Prism 5 .

MV-4-11 cells = test: CDK9 cell activity test (Cell Titer-GLO cell growth inhibition), MV-4-11; type: cell-based; details: Homo sapiens, MV4-11, 72 hours
Experimental: as §1
When MV-4-11 cells, HCC-1187 cells, Mia Paca-2 cells and A375 cells grew to 80% -90% confleuncy, they were digested with trypsin, resuspended, counted and diluted to a certain cell density with complete medium, and inoculated into 96-well plate at 100 µL/well. With complete medium as background control, they were cultured overnight in a saturated humidity incubator with 37°C and 5% CO2. The compound was diluted to 200-fold of the final concentration using DMSO, 3 µL of DMSO storage solution of the above compound was added to 197 µL of complete medium, 50 µL of compound diluted in medium was added to cells in each well, and cultivated in a saturated humidity incubator with 37°C and 5% CO2 for 72 hours. After 72 hours, the culture plate was placed at room temperature for equilibrium, and 40 µl of Cell Titer-GLO® reagent was added to each well. The cells were lysed by mixing evenly for 2 minutes using a shaker, incubated at room temperature for 60 minutes to stabilize the chemiluminescence signal, and the chemiluminescence was read by PE EnVision microtiter plate reader. The cell growth inhibition rate Inh%=(DMSO well - compound treatment well)/(DMSO well - background well)×100 was calculated, and the cell growth IC50 value was obtained by fitting with GraphPad Prism 5 .

Mia Paca-2 cells = test: CDK9 cell activity test (Cell Titer-GLO cell growth inhibition), Mia Paca-2; type: cell-based; details: Homo sapiens, 72 hours
Experimental: as §1, §2

CDK9 = CDK9 (Homo sapiens, UniProt P50750); test: experiment of inhibiting kinase activity (Caliper mobility shift assay), CDK9; type: biochemical
CDK9, sequence (P50750 whole entry): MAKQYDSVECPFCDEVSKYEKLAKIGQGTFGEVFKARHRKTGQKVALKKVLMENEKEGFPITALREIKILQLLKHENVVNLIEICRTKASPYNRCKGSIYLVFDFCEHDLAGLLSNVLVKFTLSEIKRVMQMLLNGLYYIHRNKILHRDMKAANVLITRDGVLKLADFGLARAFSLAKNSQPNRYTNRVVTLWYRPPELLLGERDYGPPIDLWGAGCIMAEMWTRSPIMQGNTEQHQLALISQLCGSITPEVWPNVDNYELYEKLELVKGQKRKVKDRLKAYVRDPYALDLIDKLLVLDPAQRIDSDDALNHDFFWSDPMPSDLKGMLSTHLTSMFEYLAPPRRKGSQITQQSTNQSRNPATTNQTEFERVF
CDK9, sequence (O60563 whole entry partner): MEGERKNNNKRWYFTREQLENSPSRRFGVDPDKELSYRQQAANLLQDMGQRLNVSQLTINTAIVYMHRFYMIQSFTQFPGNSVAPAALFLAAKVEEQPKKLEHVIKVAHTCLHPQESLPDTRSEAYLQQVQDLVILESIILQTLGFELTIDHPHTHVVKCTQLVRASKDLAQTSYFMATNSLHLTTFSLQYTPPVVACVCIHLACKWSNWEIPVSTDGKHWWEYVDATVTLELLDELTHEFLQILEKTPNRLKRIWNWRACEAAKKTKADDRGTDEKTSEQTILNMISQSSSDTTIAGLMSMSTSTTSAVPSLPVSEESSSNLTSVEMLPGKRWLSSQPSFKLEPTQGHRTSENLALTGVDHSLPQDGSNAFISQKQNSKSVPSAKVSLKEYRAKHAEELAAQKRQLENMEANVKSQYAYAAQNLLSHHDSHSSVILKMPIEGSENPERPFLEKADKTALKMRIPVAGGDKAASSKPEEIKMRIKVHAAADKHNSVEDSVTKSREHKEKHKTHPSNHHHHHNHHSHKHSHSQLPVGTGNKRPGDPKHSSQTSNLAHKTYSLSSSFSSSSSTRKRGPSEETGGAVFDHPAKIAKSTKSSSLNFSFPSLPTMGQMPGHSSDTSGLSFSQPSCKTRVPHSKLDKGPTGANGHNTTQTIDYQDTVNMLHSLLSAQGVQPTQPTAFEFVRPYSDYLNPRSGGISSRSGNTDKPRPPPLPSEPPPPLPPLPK
Summary of the method: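 IC50 values come from variable-slope fits of % conversion inhibition versus log compound concentration. Kinase and inhibitor were preincubated for 10 min at room temperature, and the reaction was then initiated with ATP and substrate and read by mobility shift.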

HCC-1187 cells = test: CDK9 cell activity test (Cell Titer-GLO cell growth inhibition), HCC1187; type: cell-based; details: Homo sapiens, HCC1187, 72 h
Experimental: as §1, §2

JAK2 = biological target: T1, JAK2 (Mus musculus, UniProt Q62120); test: JAKs cell activity test: JAK2_pSTAT5 in IL-3-induced BAF3 cells; type: cell-based; details: pSTAT5, IL-3-induced BAF3 cells
T1 construct: endogenous in cells; host or cells: BAF3
T1 sequence (Q62120 whole entry): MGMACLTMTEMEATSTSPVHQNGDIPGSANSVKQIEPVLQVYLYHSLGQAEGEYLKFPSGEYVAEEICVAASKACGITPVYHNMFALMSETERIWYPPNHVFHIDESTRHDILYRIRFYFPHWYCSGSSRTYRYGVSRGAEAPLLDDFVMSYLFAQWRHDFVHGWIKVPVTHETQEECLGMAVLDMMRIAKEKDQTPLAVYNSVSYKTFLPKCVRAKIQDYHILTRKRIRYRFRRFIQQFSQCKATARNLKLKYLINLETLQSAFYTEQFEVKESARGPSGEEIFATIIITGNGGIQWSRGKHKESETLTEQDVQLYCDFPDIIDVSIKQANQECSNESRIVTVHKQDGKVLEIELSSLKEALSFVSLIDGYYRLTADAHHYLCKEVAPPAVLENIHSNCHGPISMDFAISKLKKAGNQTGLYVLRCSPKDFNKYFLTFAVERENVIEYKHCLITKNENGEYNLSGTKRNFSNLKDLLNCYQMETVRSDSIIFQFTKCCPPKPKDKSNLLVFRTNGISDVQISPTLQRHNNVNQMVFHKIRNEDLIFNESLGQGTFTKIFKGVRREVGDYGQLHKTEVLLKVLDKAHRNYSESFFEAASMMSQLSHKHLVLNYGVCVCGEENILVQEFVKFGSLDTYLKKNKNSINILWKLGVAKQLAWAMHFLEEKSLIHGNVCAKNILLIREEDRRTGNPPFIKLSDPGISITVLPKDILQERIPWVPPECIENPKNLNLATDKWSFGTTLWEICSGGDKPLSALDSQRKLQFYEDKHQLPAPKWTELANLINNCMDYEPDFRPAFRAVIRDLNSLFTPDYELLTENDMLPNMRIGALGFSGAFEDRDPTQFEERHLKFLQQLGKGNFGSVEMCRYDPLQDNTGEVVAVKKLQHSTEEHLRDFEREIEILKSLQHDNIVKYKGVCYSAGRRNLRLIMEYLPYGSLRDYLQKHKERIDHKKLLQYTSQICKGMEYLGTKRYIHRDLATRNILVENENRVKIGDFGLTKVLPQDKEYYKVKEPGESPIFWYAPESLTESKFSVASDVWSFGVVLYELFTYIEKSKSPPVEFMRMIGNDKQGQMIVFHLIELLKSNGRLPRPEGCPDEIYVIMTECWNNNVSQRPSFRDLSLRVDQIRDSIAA
Experimental: THP1 cells were collected by centrifugation, resuspended with 1×HBSS, counted and diluted to a certain cell density. They were inoculated in a 384-well plate and cultured in a saturated humidity incubator with 37 °C and 5% CO2. The compound (DMSO final volume of 0.3%) was added to THP1 cells (10 doses in duplicates) and cultured in a saturated humidity incubator with 37 °C and 5% CO2. hIL-4 was added to stimulate cells and cultured in a saturated humidity incubator with 37 °C and 5% CO2. The lysis solution was added and incubated at room temperature. According to the instructions of AlphaLISA SureFire Ultra p-STAT6 detection kit, the lysis solution was transferred to pSTAT6 detection system, and the ALPHA signal was read by PE Envision microplate reader. The inhibition rate Inh%=((DMSO-sample)/(DMSO-background))×100 was calculated. IC50 was obtained by fitting with GraphPad Prism non-linear regression equation, and y=Bottom+(Top-Bottom)/(1+10^((LogIC50-x)×hillslope)), where x was the concentration of the compound and y was the inhibition rate.
JAK2_pSTAT5 was tesed in IL-3-induced BAF3 cells according to the above steps, and JAK3_pSTAT5 was tested in IL-2-induced CTLL-2 cells (without serum stimulation) according to the above steps.

IC50 (A375 cells) [µM]	IC50 (MV-4-11 cells) [µM]	IC50 (Mia Paca-2 cells) [µM]	inhibition at 0.01 µM (CDK9; at 10 nM, read-out: inhibition rate CDK9) [%]	inhibition at 0.1 µM (CDK9; at 100 nM, read-out: inhibition rate CDK9) [%]	IC50 (CDK9; kinase activity assay, Table 3) [µM]	IC50 (HCC-1187 cells; first HCC1187 column (c2)) [µM]	IC50 (HCC-1187 cells; second HCC1187 column (c3)) [µM]	EC50 (JAK2) [µM]	Compound
0.1 to 1	< 0.1	0.1 to 1	40 to 79	> 80	< 0.05	1 to 5	0.1 to 1		CN1CCOCCOc2cc(Nc3ncc(F)c(-c4ccc(C(=O)NCC#N)cc4)n3)ccc2OCC1 [Example 16, N-(cyanomethyl)-4-(5-fluoro-2-((7-methyl-2,3,6,7,8,9-hexahydro-5H-benzo[b][1,4,7]trioxa[10]azacyclododecan-13-yl)amino)pyrimidin-4-yl)benzamide]
								0.5 to 5	CN1CCOCCOc2cc(Nc3nc(-c4cnn(C(CC#N)C5CCCC5)c4)c4cc[nH]c4n3)ccc2OCC1 (stereo not drawn) [Example 26, 3-cyclopentyl-3-(4-(2-((7-methyl-2,3,6,7,8,9-hexahydro-5H-benzo[b][1,4,7]trioxa[10]azacyclododecan-13-yl)amino)-7H-pyrrolo[2,3-d]pytimidin-4-yl)-1H-pyrazol-1-yl)propionitrile]
